Measured values taken from patent publication US20130338228A1, “METHODS FOR FA[…] RECOVERY AFTER A PERIOD OF DISUSE USING BETA-HYDROXY-BETA-METHYLBUTYRATE” (ABBOTT LABORATORIES, priority 2010, published 2013).

Legend:
Format in all cases: in vivo, Fischer 344× Brown Norway rats
[1] = tested on: soleus and plantaris muscle fibers; assay: Muscle fiber cross sectional area (CSA) by planimetry
Protocol: (§1) Sixty-four aged (34 months of age) Fischer 344× Brown Norway rats are randomly assigned to a hind limb suspended (HS) group or a reloaded (R) group. The rats in each test group receive either: (1) 1 ml Ca-HMB (170 mg/ml distilled water); or (2) 1 ml of distilled water by gavage feeding per day. After one week, thirty-two rats (eight rats from the HS group receiving Ca-HMB; eight rats from the R group receiving Ca-HMB; eight rats from the HS group receiving water; and eight rats from the R group receiving water) are designated as part of the control groups (HS Control Group (16 rats) or R Control Group (16 rats)). The control groups maintain normal mobility throughout the test period, and are allowed to move freely around their cages. Data is collected from the HS Control Group after 14 days from initiation of the study prior to and following sacrifice. Data is collected from the R Control Group after 28 days from initiation of the study prior to and following sacrifice.
(§2) The remaining thirty-two rats (16 rats in HS Group and 16 rats in R Group) continue to receive either Ca-HMB or water and are subjected to hind limb suspension for 14 days. For the hind limb suspension, tape is applied along the proximal one-third of the tail and then placed through a wire harness that is attached to a fishlike swivel at the top of a specially designed hind limb suspension cage. The suspension allowed the rats 360° of movement around the cage. Sterile gauze is wrapped around the tape and is subsequently covered with a thermoplastic material. […] The suspension height is monitored and adjusted to prevent contact between the hind limb and any supportive surface of the cage. […] The forelimbs maintain contact with a grid floor, which allows the animals to move, groom themselves, and obtain food and water freely.
(§3) After 14 days of hind limb suspension, the hind limbs are released. The R Group is further allowed normal cage ambulation for an additional 14 days and then data is collected prior to and following sacrifice.
Muscle fiber cross sectional area (CSA) is determined by planimetry from 750-1200 fibers that are obtained from four non-overlapping regions of each tissue cross-section is stained for lamina. Fiber CSA is calculated by the Image J software.

Bcl-2 = assay: Western immunoblot of Bcl-2 in hind limb muscles; details: plantaris and soleus after either hind limb suspension or reloading (both conditions increase Bcl-2 by about 100%)
Protocol: (§4) Sixty-four aged (34 months of age) Fischer 344× Brown Norway rats are randomly assigned to a hind limb suspended (HS) group or a reloaded (R) group. The rats in each test group receive either: (1) 1 ml Ca-HMB (170 mg/ml distilled water); or (2) 1 ml of distilled water by gavage feeding per day. After one week, thirty-two rats (eight rats from the HS group receiving Ca-HMB; eight rats from the R group receiving Ca-HMB; eight rats from the HS group receiving water; and eight rats from the R group receiving water) are designated as part of the control groups (HS Control Group (16 rats) or R Control Group (16 rats)). […]
(§5) The remaining thirty-two rats (16 rats in HS Group and 16 rats in R Group) continue to receive either Ca-HMB or water and are subjected to hind limb suspension for 14 days. […] The suspension height is monitored and adjusted to prevent contact between the hind limb and any supportive surface of the cage. […]
(§6) Approximately seventy-five […] of muscle is homogenized in ice-cold RIPA buffer (1% Triton x-100, 150 mM NaCl, 5 mM EDTA, 10 mM Tris; pH 7.4), containing protease inhibitors (P8340, Sigma-Aldrich, St. Louis, Mo.), and phosphatase inhibitors (P2850; P5726, Sigma-Aldrich). The muscle homogenates are centrifuged at 1000×g for 5 minutes at 4° C., and the protein content of the supernatant is measured (500-0116; BioRad, Hercules, Calif.). […]

Bax = assay: Western immunoblot of Bax in hind limb muscles
Protocol: as §4, §5, §6

[2] = tested on: TUNEL positive myonuclei in plantaris and soleus muscles; assay: Apoptotic myonuclei identified by TUNEL labeling (apoptotic index)
Protocol: as §1
The remaining thirty-two rats (16 rats in HS Group and 16 rats in R Group) continue to receive either Ca-HMB or water and are subjected to hind limb suspension for 14 days. For the hind limb suspension, tape is applied along the proximal one-third of the tail and then placed through a wire harness that is attached to a fishlike swivel at the top of a specially designed hind limb suspension cage. […] The suspension height is monitored and adjusted to prevent contact between the hind limb and any supportive surface of the cage. […]
10-μm-thick frozen cross sections from soleus and plantaris muscles are mounted on charged microscope slides (Fisher Scientific, Pittsburgh, Pa.). […] The number of TUNEL- and DAPI-positive nuclei that are immediately adjacent to, or beneath, the basal lamina is counted. Data is expressed as an apoptotic index, which is calculated by counting the number of TUNEL-positive nuclei divided by the total number of nuclei (i.e., DAPI-positive nuclei). The apoptotic index is determined from ˜1200 fibers, which are obtained from four non-overlapping regions of each tissue cross section.

cleaved caspase-9 = assay: Western immunoblot of cleaved caspase-9 in hind limb muscles; details: plantaris and soleus muscles after both hind limb suspension and reloading, vs water-treated
Protocol: as §4, §5, §6

[3] = tested on: satellite cells/muscle precursor cells; assay: Activation of satellite cells by BrdU labeling during reloading
Protocol: as §4, §5
Activated, proliferated satellite cells/muscle precursor cells were identified by immunofluorescence staining on BrdU and laminin as described previously (Siu 2005). […] The sections were finally stained with 4′,6-diamidino-2-phenylindole (DAPI) and examined under a fluorescence microscope with excitation wavelengths of 330-380 nm for DAPI blue fluorescence, 485-585 nm for Cy3 red fluorescence, and 450-490 nm for fluorescein green fluorescence. […]

[4] = tested on: soleus and plantaris muscles; assay: Muscle wet weight after hind limb suspension and reloading
Protocol: as §1, §2, §3
(§7) Each animal is weighed at the beginning of the experiment, following 14 days of hind limb suspension and after 14 days of reloading. With the animals deeply anesthetized, the soleus and the plantaris muscles are removed from both limbs, then blotted, and weighed. Animals are euthanized following this procedure. A block obtained from the mid-belly of the muscle is embedded in optimal cutting temperature (OCT) compound (Tissue-Tek; Andwin Scientific, Addison, Ill.), snap frozen in liquid nitrogen-cooled isopentane, and stored at −80° C. The remainder of the muscle is snap frozen in liquid nitrogen and stored at −80° C. until needed for subsequent analyses.

[5] = tested on: plantar flexor muscle group; assay: Maximal isometric force measurement after hind limb suspension and reloading
Protocol: as §1
The remaining thirty-two rats (16 rats in HS Group and 16 rats in R Group) continue to receive either Ca-HMB or water and are subjected to hind limb suspension for 14 days. For the hind limb suspension, tape is applied along the proximal one-third of the tail and then placed through a wire harness that is attached to a fishlike swivel at the top of a specially designed hind limb suspension cage. The suspension allowed the rats 360° of movement around the cage. […] The suspension height is monitored and adjusted to prevent contact between the hind limb and any supportive surface of the cage. […]
Force measurements: All force measurements are made while the animals are anesthetized with 98% oxygen and 2% isoflurane gas. […] The maximal isometric force of the plantar flexor muscle group is evaluated by stimulating the tibial nerve using supramaximal square wave pulses that are 4 V, 100 Hz for a duration of 3 seconds using a SD9 stimulator (Grass Medical Instruments, Quincy, Mass.). Maximal force is determined using Labview based software. […]

cleaved caspase-3 = assay: Western immunoblot of cleaved caspase-3 in hind limb muscles
Protocol: as §4, §5, §6

[6] = Body weight of aged rats after hind limb suspension and reloading
Protocol: as §1, §2, §3, §7

[7] = plantaris and soleus muscles after both hind limb suspension and reloading, vs water-treated
[8] = HS induced, stated for both HMB and vehicle-treated animals, P<0.001

SMILES: CC(C)(O)CC(=O)O [HMB, beta-hydroxy-beta-methylbutyrate]
- HS-induced decrease in fiber CSA, plantaris ([1]; after HS, p<0.05 vs vehicle): 26.4%
- HS-induced decrease in fiber CSA, soleus ([1]; after HS, p<0.05 vs vehicle): 32.5%
- frequency of fibers<1500 μm^2 ([1]; plantaris and soleus, recovered for 14 days following HS, Chi-squared analyses): significantly greater in the plantaris and soleus muscles of vehicle-treated animals as compared to HMB-treated animals
- effect on fiber CSA after reloading as compared to HS ([1]; plantaris or soleus muscles, after 14 days of reloading): did not further improve
- Bcl-2 protein, difference between HMB and water-treated muscles (Bcl-2): may not be a significant difference
- Bax protein abundance in control muscles (Bax; control muscles of ambulatory animals (HS Con and R Con), FIG. 7B): reduces the protein abundance
- Bax protein abundance (Bax; [7]): suppresses the protein abundance
- increase of apoptotic index by HS compared to ambulatory control animals, plantaris ([2]; after HS, p<0.05): 3.0 fold
- increase of apoptotic index by HS compared to ambulatory control animals, soleus ([2]; after HS, p<0.05): 1.8 fold
- effect on TUNEL labeling in myonuclei of reloaded muscles ([2]; reloaded plantaris and soleus muscles): continued to suppress TUNEL labeling
- cleaved caspase-9 protein abundance (cleaved caspase-9): suppresses the protein abundance
- number of BrdU positive nuclei relative to vehicle-treated rats ([3]; during recovery from muscle disuse): almost twice the number
- number of BrdU-positive nuclei to total nuclei ([3]; soleus, 14 day recovery period, mean+/−SE, p=0.001 vs control): 8.1+/−2%
- decrease in wet weight of the plantaris muscle [4, 8]: 19%
- decrease in wet weight of the soleus muscle [4, 8]: 15%
- effect on extent of HS-induced atrophy (muscle wet weight) ([4]; after 14 days of HS, relative to vehicle): did not significantly reduce
- effect on plantaris muscle weight ([4]; after 14 days of reloading relative to vehicle-treated animals): significantly improved
- effect against HS-induced loss in the soleus muscle (wet weight) ([4]; after HS, relative to vehicle-treated animals): did not provide protective effect
- reduction of maximal in vivo plantarflexor isometric force by hind limb suspension ([5]; after 14 days of hind limb suspension): 23.7%
- loss in maximal isometric plantarflexor force compared to isometric force in control animals ([5]; after reloading, P<0.01 vs water-treated rats): 27.3%
- effect on loss of force ([5]; hind limb suspension and reloading): attenuate the loss of force
- cleaved caspase-3 protein abundance in control muscles (cleaved caspase-3; control muscles of ambulatory animals (HS Con and R Con), FIG. 9B): reduces the protein abundance
- cleaved caspase-3 protein abundance (cleaved caspase-3; [7]): suppresses the protein abundance
- body weight lowered by hind limb suspension ([6]; after 14 days of hind limb suspension, stated for both the HMB and water-treated groups): about 15%
- decrease in body weight compared to the body weight of control animals ([6]; after 14 days of reloading): 4%
- body weight reduced relative to the first experimental day ([6]; control rats (normal mobility) treated for five weeks): 7%
- body weight reduced relative to the first experimental day ([6]; control rats (normal mobility) treated for three weeks): 1.3%
